Assay results from US12552772B2, “2-pyrazole anilines and related analogs for inhibiting YAP/TAZ-TEAD” (KATHOLIEKE UNIVERSITEIT LEUVEN, priority 2021, dated 2026).

Assays:
Format in all cases: cell-based
NCI-H2052 = experiment: Mesothelioma cell line proliferation assay (ATPlite), NCI-H2052; details: NCI-H2052 cells, 6 days, ATPlite cell viability
Protocol: (§1) Mesothelioma cell lines, NCI-H226 and NCI-H2052 (all sourced from the ATCC cell culture collection) are plated in 96-well plates (Corning® 96 Well White Polystyrene Microplate clear flat bottom, white polystyrene (TC-Treated)), at 1500 cells/well in full medium (RPMI 1640 ATCC modification with L-glutamine, HEPES, Phenol Red, Sodium Pyruvate, High glucose, Low sodium bicarbonate and 10% fetal bovine serum). Cells are incubated overnight at 37° C. in an incubator with 5% CO2. Then compounds, dissolved in DMSO, are added in dose-response. Cells are incubated with compound dilutions for another 6 days at 37° C. in an incubator with 5% CO2. Cell viability is quantitated using the ATPlite kit (Perkin-Elmer) and the luminescence is read-out using an Envision instrument (Perkin-Elmer). The amount of relative light units produced using the ATPlite kit is used to calculated percent of inhibition.
(§2) The activities of example compounds tested are depicted in the table below. The activity ranges A, B and C refer to EC50 values in the mesothelioma cell line proliferation assay as described as follows: “A”: EC50<1 μM; “B”: 1 μM s EC50≤10 μM and “C”: EC50>10 μM. NT: not tested.

NCI-H226 = experiment: Mesothelioma cell line proliferation assay (ATPlite), NCI-H226; details: NCI-H226 cells, 6 days, ATPlite cell viability
Protocol: as §1, §2

[1] = tested on: YAP/TAZ-TEAD transcription; experiment: Reporter gene assay for measuring the inhibition of YAP/TAZ-TEAD transcription (TEAD-responsive element luciferase reporter in Hek293T cells); details: 24 hours incubation
Outline: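 Hek293T cells transiently transfected with a TEAD-responsive element luciferase reporter were plated onto compounds and incubated 24 h at 37 °C/5% CO2. SteadyLite luminescence gave percent inhibition, normalised to vehicle (0%) and positive control inhibitor (100%); EC50 derived.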

Compound	EC50 (NCI-H2052; Homo sapiens, NCI-H2052, 144 h) [nM]	EC50 (NCI-H226; Homo sapiens, 144 h) [nM]	EC50 ([1]; Homo sapiens, HEK-293T) [nM]	EC50 (NCI-H2052) [nM]	EC50 (NCI-H226) [nM]	EC50 [1] [nM]
C=CC(=O)NCc1cnc(-c2ccc(F)cc2)cc1-c1ccn(C)n1 [compound 205, N-((6-(4-fluorophenyl)-4-(1-methyl-1H-pyrazol-3-yl)pyridin-3-yl)methyl)acrylamide]	< 1000	< 1000	< 1000			
C=CC(=O)NCc1cc(-c2ccc(F)cc2)cc(-c2ccn(C3CC3)n2)c1 [compound 169, N-((5-(1-cyclopropyl-1H-pyrazol-3-yl)-4′-fluoro[1,1′-biphenyl]-3-yl)methyl)acrylamide]	1000 to 10000	< 1000	< 1000			
C=CC(=O)NCc1cnc(-c2ccc(F)cc2)cc1-c1cc2n(n1)CCCC2 [Cpd. No. 231, N-((6-(4-fluorophenyl)-4-(4,5,6,7-tetrahydropyrazolo[1,5-a]pyridin-2-yl)pyridin-3-yl)methyl)acrylamide]	> 10000	< 1000	< 1000			
C=CC(=O)N1CCC(c2cnc(-c3ccc(F)cc3)cc2-c2ccn(C(F)F)n2)C1 (stereo not drawn) [Cpd. No. 262-En1, 1-(3-(4-(1-(difluoromethyl)-1H-pyrazol-3-yl)-6-(4-fluorophenyl)pyridin-3-yl)pyrrolidin-1-yl)prop-2-en-1-one]				1000 to 10000	< 1000	< 1000
C=CC(=O)N1CCC(c2ccc(-c3ccc(F)cc3)cc2-c2ccn(C(F)F)n2)C1 (stereo not drawn) [Cpd. No. 261, 1-(3-(3-(1-(difluoromethyl)-1H-pyrazol-3-yl)-4′-fluoro-[1,1′-biphenyl]-4-yl)pyrrolidin-1-yl)prop-2-en-1-one]		< 1000	< 1000	1000 to 10000		
C=CC(=O)NCc1ccc(-c2ccccc2)nc1-c1ccn(C)n1 [compound 194, N-((2-(1-methyl-1H-pyrazol-3-yl)-6-phenylpyridin-3-yl)methyl)acrylamide]	< 1000	< 1000	< 1000			
C=CC(=O)NCc1ccc(-c2ccc(F)cc2)cc1-c1cnn(C)n1 [compound 187, N-((4′-fluoro-3-(2-methyl-2H-1,2,3-triazol-4-yl)-[1,1′-biphenyl]-4-yl)methyl)acrylamide]	1000 to 10000	< 1000	< 1000			
C=CC(=O)NCc1cnc(-c2ccc(F)cc2)cc1-n1ncc(C)n1 [compound 244, N-((6-(4-fluorophenyl)-4-(4-methyl-2H-1,2,3-triazol-2-yl)pyridin-3-yl)methyl)acrylamide]	< 1000	< 1000	< 1000			
C=CC(=O)NCc1ccc(-c2ccc(F)c(F)c2)cc1-c1ccn(C)n1 [compound 144, N-((3′,4′-difluoro-3-(1-methyl-1H-pyrazol-3-yl)-[1,1′-biphenyl]-4-yl)methyl)acrylamide]	< 1000	< 1000	< 1000			
C=CC(=O)NCc1ccc(-c2ccc(F)cc2)cc1-c1cc(C)n(C)n1 [compound 176, N-((3-(1,5-dimethyl-1H-pyrazol-3-yl)-4′-fluoro-[1,1′-biphenyl]-4-yl)methyl)acrylamide]	< 1000	< 1000	< 1000			
C=CC(=O)N1CCC(c2cnc(-c3ccc(F)cc3)cc2-c2ccn(C(F)F)n2)C1 (stereo not drawn) [Cpd. No. 262-En2, 1-(3-(4-(1-(difluoromethyl)-1H-pyrazol-3-yl)-6-(4-fluorophenyl)pyridin-3-yl)pyrrolidin-1-yl)prop-2-en-1-one]				> 10000	< 1000	< 1000
C=CC(=O)N1CCC(c2ccc(-c3ccc(F)cc3)cc2-c2ccn(C(F)F)n2)C1 (stereo not drawn) [Cpd. No. 261-En2, 1-(3-(3-(1-(difluoromethyl)-1H-pyrazol-3-yl)-4′-fluoro-[1,1′-biphenyl]-4-yl)pyrrolidin-1-yl)prop-2-en-1-one]				> 10000	< 1000	< 1000
C=CC(=O)NCc1ccc(-c2ccc(F)cc2)cc1-c1ccn(CC2CC2)n1 [compound 153, N-((3-(1-(cyclopropylmethyl)-1H-pyrazol-3-yl)-4′-fluoro-[1,1′-biphenyl]-4-yl)methyl)acrylamide]	< 1000	< 1000	< 1000			
C=CC(=O)NCc1cc(-c2ccc(F)cc2)cc(-c2cnn(C(F)F)c2)n1 [compound 227, N-((6-(1-(difluoromethyl)-1H-pyrazol-4-yl)-4-(4-fluorophenyl)pyridin-2-yl)methyl)acrylamide]	> 10000	< 1000	< 1000			
C=CC(=O)NCc1ccc(-c2ccc(F)cc2)nc1-c1ccn(C)n1 [compound 193, N-((6-(4-fluorophenyl)-2-(1-methyl-1H-pyrazol-3-yl)pyridin-3-yl)methyl)acrylamide]	< 1000	< 1000	< 1000			
C=CC(=O)NCc1ncc(-c2ccc(F)cc2)cc1-c1ccn(C2CC2)n1 [compound 202, N-((3-(1-cyclopropyl-1H-pyrazol-3-yl)-5-(4-fluorophenyl)pyridin-2-yl)methyl)acrylamide]	< 1000	< 1000	< 1000			
C=CC(=O)NCc1cnc(-c2ccc(F)cc2)cc1-n1ccc(C)n1 [compound 240, N-((6-(4-fluorophenyl)-4-(3-methyl-1H-pyrazol-1-yl)pyridin-3-yl)methyl)acrylamide]	< 1000	< 1000	< 1000			

The next lines start with the values.

EC50 (NCI-H2052; Homo sapiens, NCI-H2052, 144 h) [nM]	EC50 (NCI-H226; Homo sapiens, 144 h) [nM]	EC50 ([1]; Homo sapiens, HEK-293T) [nM]	EC50 (NCI-H2052) [nM]	EC50 (NCI-H226) [nM]	EC50 [1] [nM]	Compound
< 1000	< 1000	< 1000				C=CC(=O)NCc1ccc(C2CCC(F)(F)CC2)cc1-c1ccn(C)n1 [compound 180, N-(4-(4,4-difluorocyclohexyl)-2-(1-methyl-1H-pyrazol-3-yl)benzyl)acrylamide]
1000 to 10000	< 1000	< 1000				C=CC(=O)NCc1cnc(N2CCC(F)(F)CC2)cc1-c1ccn(C(F)F)n1 [compound 221, N-((4-(1-(difluoromethyl)-1H-pyrazol-3-yl)-6-(4,4-difluoropiperidin-1-yl)pyridin-3-yl)methyl)acrylamide]
< 1000	< 1000	< 1000				C=CC(=O)NCc1cnc(-c2ccc(F)cc2)cc1-c1ccn(C2CC2)n1 [compound 206, N-((4-(1-cyclopropyl-1H-pyrazol-3-yl)-6-(4-fluorophenyl)pyridin-3-yl)methyl)acrylamide]
< 1000	< 1000	< 1000				C=CC(=O)NCc1cnc(-c2ccc(F)cc2)nc1-c1ccn(C(F)F)n1 [compound 254, N-((4-(1-(difluoromethyl)-1H-pyrazol-3-yl)-2-(4-fluorophenyl)pyrimidin-5-yl)methyl)acrylamide]
< 1000	< 1000	< 1000				C=CC(=O)NCc1cnc(-c2ccc(F)cc2)cc1-c1ccn(C(F)F)n1 [compound 207, N-((4-(1-(difluoromethyl)-1H-pyrazol-3-yl)-6-(4-fluorophenyl)pyridin-3-yl)methyl)acrylamide]
1000 to 10000	< 1000	< 1000				C=CC(=O)NCc1cnc(-c2cccc(C(F)(F)F)c2)cc1-c1ccn(C(F)F)n1 [compound 215, N-((4-(1-(difluoromethyl)-1H-pyrazol-3-yl)-6-(3-(trifluoromethyl)phenyl)pyridin-3-yl)methyl)acrylamide]
< 1000	< 1000	< 1000				C=CC(=O)NCc1ncc(-c2ccc(F)cc2)cc1-c1ccn(C(F)F)n1 [compound 203, N-((3-(1-(difluoromethyl)-1H-pyrazol-3-yl)-5-(4-fluorophenyl)pyridin-2-yl)methyl)acrylamide]
